Measurements: paper PMC7115586 (European Journal of Medicinal Chemistry, 2013)
pEC50: −log10 of the molar value.

Assays:
[1] = Solubility in methanol or water; type: physicochemical; details: insufficient to measure the 13C NMR spectrum
[2] = system: a wide variety of DNA and RNA viruses; test: All biological tests; type: cell-based; details: antiviral and cytostatic tests
[3] = system: feline herpes virus (FHV); type: cell-based; details: CRFK, read-out: EC50 against feline herpes virus

Compound	solubility in methanol or water [1]	other results
3-(4-{[3-Benzoyl-2,4-dioxopyrimidin-1-yl]methyl}-1H-1,2,3-triazol-1-yl)propylphosphonic acid [Compound 31e]		activity in all biological tests [2]: inactive
Cc1cc2ncn(Cc3cn(CCCP(=O)(O)O)nn3)c2cc1C [Compound 31j, 3-{4-[(5,6-Dimethyl-benzimidazol-1-yl)methyl]-1H-1,2,3-triazol-1-yl}propylphosphonic acid]		activity in all biological tests [2]: inactive
CCOP(=O)(CCCn1cc(Cn2ccc(=O)n(C(=O)c3ccccc3)c2=O)nn1)OCC [Compound 22m, Diethyl 3-(4-{[3-benzoyl-2,4-dioxopyrimidin-1-yl]methyl}-1H-1,2,3-triazol-1-yl)propylphosphonate]		pEC50 [3]: < 3.70
4-(4-{[6-Aminopurin-9-yl]methyl}-1H-1,2,3-triazol-1-yl)butylphosphonic acid [Compound 32b]	insufficient	

Now from value to compound, other results behind:

solubility in methanol or water [1]	Compound	other results
insufficient	Cn1c(=O)c2c(nc(Cl)n2Cc2cn(CCCP(=O)(O)O)nn2)n(C)c1=O [Compound 31g, 3-{4-[(8-Chloro-1,3-dimethyl-2,6-dioxopurin-7-yl)methyl]-1H-1,2,3-triazol-1-yl}propylphosphonic acid]	
insufficient	Cn1c(=O)c2c(ncn2Cc2cn(CC(O)P(=O)(O)O)nn2)n(C)c1=O (stereo not shown) [Compound 33i, 3-{4-[(1,3-Dimethyl-2,6-dioxopurin-7-yl)methyl]-1H-1,2,3-triazol-1-yl}-1-hydroxyethyphosphonic acid]	
insufficient	Nc1ncnc2c1ncn2Cc1cn(CCCCP(=O)(O)O)nn1 [Compound 32a, 4-(4-{[6-Aminopurin-9-yl]methyl}-1H-1,2,3-triazol-1-yl)butylphosphonic acid]	
